Results from patent publication US9708314B2, “Heterocyclic amide compound” (NISSAN CHEMICAL INDUSTRIES, LTD., priority 2013, dated 2017).

Experiments:
Format in all cases: in vivo
[1] = system: transplanted Oryza sativa; assay: Test Example 1: effect on crop, application before weed generation in submerged conditions; conditions: Application herbicide amount 320 g/ha; Seventeenth Table
Summary of the method: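 Water-diluted emulsion formulation is applied onto flood water (4 cm deep) covering alluvial soil on the day weed seeds are sown, after transplanting 2.5 leaf stage rice. Rates are expressed per hectare. Injury or control is graded 0–5 three weeks later.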

Amaranthus retroflexus = assay: Test Example 4: herbicidal effect by application to foliage (diluvial soil, plastic box); conditions: foliage application, 320 g/ha
Summary of the method: (§1)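 Greenhouse plants (25° C. to 30° C., 14 d, diluvial soil) receive a foliar spray of water-diluted emulsifiable formulation at defined g/ha. Grading after 3 weeks uses a six-step herbicidal-ratio scale, with 4 covering 70% to <90% and 1 covering 5% to <20%.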

Veronica persica = assay: as above; conditions: foliage application, 320 g/ha
Summary of the method: as §1

Stellaria media = assay: as above; conditions: foliage application, 320 g/ha
Summary of the method: as §1

Galium spurium = assay: as above; conditions: foliage application, 320 g/ha
Summary of the method: as §1

[2] = system: Echinochloa crus-galli var. crus-galli; assay: as above; conditions: foliage application, 320 g/ha
Summary of the method: as §1

Lolium multiflorum Lam. = assay: as above; conditions: foliage application, 320 g/ha
Summary of the method: as §1

Abutilon theophrasti = assay: as above; conditions: foliage application, 320 g/ha
Summary of the method: as §1

Digitaria ciliaris = assay: as above; conditions: foliage application, 320 g/ha
Summary of the method: as §1

Avena fatua = assay: as above; conditions: foliage application, 320 g/ha
Summary of the method: as §1

Chenopodium album = assay: as above; conditions: foliage application, 320 g/ha
Summary of the method: as §1

Setaria viridis = assay: as above; conditions: foliage application, 320 g/ha
Summary of the method: as §1

Apera spica-venti. = assay: as above; conditions: foliage application, 320 g/ha
Summary of the method: as §1

Alopecurus myosuroides = assay: as above; conditions: foliage application, 320 g/ha
Summary of the method: as §1

Brassica campestris L. = assay: Test Example 4: effect on crop by application to foliage (diluvial soil, plastic box); conditions: foliage application, 320 g/ha
Summary of the method: as §1

Zea mays = assay: as above; conditions: foliage application, 320 g/ha
Summary of the method: as §1

[3] = system: Beta vulgaris ssp. vulgaris; assay: as above; conditions: foliage application, 320 g/ha
Summary of the method: as §1

Triticum aestivum = assay: as above; conditions: foliage application, 320 g/ha
Summary of the method: as §1

[4] = system: directly sowed Oryza sativa; assay: as above; conditions: foliage application, 320 g/ha
Summary of the method: as §1

Glycine max = assay: as above; conditions: foliage application, 320 g/ha
Summary of the method: as §1

Compound	a: transplanted Oryza sativa (effect on crop grade) [1]	N (Amaranthus retroflexus) herbicidal effect grade (Amaranthus retroflexus)	R (Veronica persica) herbicidal effect grade (Veronica persica)	P (Stellaria media) herbicidal effect grade (Stellaria media)	Q (Galium spurium) herbicidal effect grade (Galium spurium)	H (Echinochloa crus-galli var. crus-galli) herbicidal effect grade [2]	K (Lolium multiflorum Lam.) herbicidal effect grade (Lolium multiflorum Lam.)	M (Abutilon theophrasti) herbicidal effect grade (Abutilon theophrasti)	F (Digitaria ciliaris) herbicidal effect grade (Digitaria ciliaris)	I (Avena fatua) herbicidal effect grade (Avena fatua)	O (Chenopodium album) herbicidal effect grade (Chenopodium album)	G (Setaria viridis) herbicidal effect grade (Setaria viridis)	L (Apera spica-venti.) herbicidal effect grade (Apera spica-venti.)	J (Alopecurus myosuroides) herbicidal effect grade (Alopecurus myosuroides)	g (Brassica campestris L.) effect on crop grade (Brassica campestris L.)	b (Zea mays) effect on crop grade (Zea mays)	f (Beta vulgaris ssp. vulgaris) effect on crop grade [3]	e (Triticum aestivum) effect on crop grade (Triticum aestivum)	d (directly sowed Oryza sativa) effect on crop grade [4]	c (Glycine max) effect on crop grade (Glycine max)
Cn1nnnc1NC(=O)c1ccc(C(F)(F)F)n2c(C3=NOC(C)(C)C3)nnc12 [2-028]	5 (Herbicidal ratio of 90% or more (almost completely withered))	5 (Herbicidal ratio of 90% or more (almost completely withered))	5 (Herbicidal ratio of 90% or more (almost completely withered))	5 (Herbicidal ratio of 90% or more (almost completely withered))	4 (Herbicidal ratio of 70% or more and less than 90%)	5 (Herbicidal ratio of 90% or more (almost completely withered))	4 (Herbicidal ratio of 70% or more and less than 90%)	5 (Herbicidal ratio of 90% or more (almost completely withered))	5 (Herbicidal ratio of 90% or more (almost completely withered))	4 (Herbicidal ratio of 70% or more and less than 90%)	5 (Herbicidal ratio of 90% or more (almost completely withered))	5 (Herbicidal ratio of 90% or more (almost completely withered))	5 (Herbicidal ratio of 90% or more (almost completely withered))	4 (Herbicidal ratio of 70% or more and less than 90%)	5 (Herbicidal ratio of 90% or more (almost completely withered))	5 (Herbicidal ratio of 90% or more (almost completely withered))	5 (Herbicidal ratio of 90% or more (almost completely withered))	4 (Herbicidal ratio of 70% or more and less than 90%)	4 (Herbicidal ratio of 70% or more and less than 90%)	3 (Herbicidal ratio of 40% or more and less than 70%)
CSCc1nnc2c(C(=O)Nc3nnnn3C)ccc(C(F)(F)F)n12 [2-029]	5 (Herbicidal ratio of 90% or more (almost completely withered))	5 (Herbicidal ratio of 90% or more (almost completely withered))	5 (Herbicidal ratio of 90% or more (almost completely withered))	5 (Herbicidal ratio of 90% or more (almost completely withered))	4 (Herbicidal ratio of 70% or more and less than 90%)	5 (Herbicidal ratio of 90% or more (almost completely withered))	5 (Herbicidal ratio of 90% or more (almost completely withered))	5 (Herbicidal ratio of 90% or more (almost completely withered))	5 (Herbicidal ratio of 90% or more (almost completely withered))	5 (Herbicidal ratio of 90% or more (almost completely withered))	5 (Herbicidal ratio of 90% or more (almost completely withered))	5 (Herbicidal ratio of 90% or more (almost completely withered))	5 (Herbicidal ratio of 90% or more (almost completely withered))	5 (Herbicidal ratio of 90% or more (almost completely withered))	5 (Herbicidal ratio of 90% or more (almost completely withered))	5 (Herbicidal ratio of 90% or more (almost completely withered))	5 (Herbicidal ratio of 90% or more (almost completely withered))	5 (Herbicidal ratio of 90% or more (almost completely withered))	5 (Herbicidal ratio of 90% or more (almost completely withered))	4 (Herbicidal ratio of 70% or more and less than 90%)
Cn1nnnc1NC(=O)c1ccc(C(F)(F)F)n2c(CSCC(F)(F)F)nnc12 [2-030]	3 (Herbicidal ratio of 40% or more and less than 70%)	5 (Herbicidal ratio of 90% or more (almost completely withered))	5 (Herbicidal ratio of 90% or more (almost completely withered))	5 (Herbicidal ratio of 90% or more (almost completely withered))	3 (Herbicidal ratio of 40% or more and less than 70%)	5 (Herbicidal ratio of 90% or more (almost completely withered))	3 (Herbicidal ratio of 40% or more and less than 70%)	5 (Herbicidal ratio of 90% or more (almost completely withered))	5 (Herbicidal ratio of 90% or more (almost completely withered))	4 (Herbicidal ratio of 70% or more and less than 90%)	5 (Herbicidal ratio of 90% or more (almost completely withered))	5 (Herbicidal ratio of 90% or more (almost completely withered))	5 (Herbicidal ratio of 90% or more (almost completely withered))	3 (Herbicidal ratio of 40% or more and less than 70%)	5 (Herbicidal ratio of 90% or more (almost completely withered))	5 (Herbicidal ratio of 90% or more (almost completely withered))	5 (Herbicidal ratio of 90% or more (almost completely withered))	3 (Herbicidal ratio of 40% or more and less than 70%)	4 (Herbicidal ratio of 70% or more and less than 90%)	0 (Herbicidal ratio of 5% or less (almost no effect))
CC[S+]([O-])c1nnc2c(C(=O)Nc3nnnn3C)ccc(C(F)(F)F)n12 (centres unmarked) [2-031]	5 (Herbicidal ratio of 90% or more (almost completely withered))	5 (Herbicidal ratio of 90% or more (almost completely withered))	5 (Herbicidal ratio of 90% or more (almost completely withered))	5 (Herbicidal ratio of 90% or more (almost completely withered))	5 (Herbicidal ratio of 90% or more (almost completely withered))	5 (Herbicidal ratio of 90% or more (almost completely withered))	5 (Herbicidal ratio of 90% or more (almost completely withered))	5 (Herbicidal ratio of 90% or more (almost completely withered))	5 (Herbicidal ratio of 90% or more (almost completely withered))	5 (Herbicidal ratio of 90% or more (almost completely withered))	5 (Herbicidal ratio of 90% or more (almost completely withered))	5 (Herbicidal ratio of 90% or more (almost completely withered))	5 (Herbicidal ratio of 90% or more (almost completely withered))	4 (Herbicidal ratio of 70% or more and less than 90%)	5 (Herbicidal ratio of 90% or more (almost completely withered))	5 (Herbicidal ratio of 90% or more (almost completely withered))	5 (Herbicidal ratio of 90% or more (almost completely withered))	5 (Herbicidal ratio of 90% or more (almost completely withered))	5 (Herbicidal ratio of 90% or more (almost completely withered))	5 (Herbicidal ratio of 90% or more (almost completely withered))
